Consider 7 compounds from US5103018A, “Mitomycin derivatives” (Kyowa Hakko Kogyo Kabushiki Kaisha, priority 1986, dated 1992).

The test system of data set [1] is Streptococcus faecalis ATCC 10541. The data set can be described thus: Minimum inhibitory concentration, agar dilution method, SF. It counts as cell-based. The settings on record: Enterococcus faecalis. An excerpt:
(§1) Certain Compounds I were selected. Table 3 indicates their anti-bacterial activities in terms of their minimum inhibitory concentration (μg/ml), determined by the agar dilution method effected at a pH of 7.0. In this table, the microorganisms used are abbreviated as follows:
SF: Streptococcus faecalis ATCC 10541
(Agar dilution tests growth on a series of plates holding different concentrations.)

Data set [2] relates to Staphylococcus aureus ATCC 6583P. The data set can be described thus: Minimum inhibitory concentration, agar dilution method, SA. It counts as cell-based. The settings on record: ATCC6583P.
Excerpt: as §1
SA: Staphylococcus aureus ATCC 6583P

A further data set concerns Escherichia coli ATCC 26. The data set is described as follows: Minimum inhibitory concentration, agar dilution method, EC. In kind it is cell-based.
Excerpt: as §1
EC: Escherichia coli ATCC 26

The subject of data set [3] is Proteus vulgaris ATCC 6897. The data set can be described thus: Minimum inhibitory concentration, agar dilution method, PV. It counts as cell-based.
Excerpt: as §1
PV: Proteus vulgaris ATCC 6897

Data set [4] relates to Klebsiella pneumoniae ATCC 10031. The data set can be described thus: microbe, parasite or virus in culture. It counts as cell-based. The settings on record: ATCC10031, pH 7, read-out: minimum inhibitory concentration, KP. An excerpt: Certain Compounds I were selected. […] In this table, the microorganisms used are abbreviated as follows:
KP: Klebsiella pneumoniae ATCC 10031

Another data set has as its system Sarcoma 180 solid tumour. The data set can be described thus: animal or person. It counts as in vivo, mice (ddy strain). The following applies: Mus musculus, Sarcoma-180, ip, 168 h, read-out: ED50 ip. An excerpt:
(§2) Certain compounds were selected from Compounds I. The following Table 4 indicates anti-tumour activity against Sarcoma 180 solid tumour (ED50), acute toxicity (LD50) and effects on the peripheral leucocytes (WBC4000) of each compound.
(1) Effect against Sarcoma 180 solid tumour:
5×10^6 cells of Sarcoma 180 solid tumour cells were abdominally implanted into male mice of ddy strain. 7 days after this, ascites cells were sampled. The cells were washed once with a sterilized physiological solution of sodium chloride and were used to prepare a cell suspension containing 5×10^7 cells per ml. On each occasion, 0.1 ml of the cell suspension was subcutaneously implanted into the right armpit of a male mouse (ddy strain; body weight 20±2 g). 24 hours after the implantation of the tumour cells, the test compound which was dissolved in a physiological solution of sodium chloride with or without addition of Tween 80 was abdominally administered to each mouse of a group consisting of 5 animals at a does of 0.1-0.2 ml. The anti-tumour activity was determined as follows:
7 days after the implantation, the major axis (a) and the minor axis (b) of the tumour were measured to calculate a value of "a×b^2 /2" which corresponds to the volume of the tumour. The anti-tumour activity was expressed by T/C viz. the ratio of the volume of the tumours (T) of the group of animals administered with the test compound to the corresponding volume of tumours (C) of the untreated animals.
(2) Determination of ED50 :
The term ED50 denotes the administered amount needed for reducing the volume of Sarcoma 180 solid tumours in the animals to 50% on the basis of the corresponding volume of Sarcoma 180 solid tumours in control (untreated) animals.
On graph paper, T/C was indicated by an arithmetic scale on the longitudinal axis and the administered amount of test compound was indicated by a logarithmic scale on the lateral axis.

A further data set is described as follows: Acute toxicity. In kind it is in vivo, mice (ddy). The following applies: mouse, in vivo, ip; for LD50 at 336 h: ddy mice, single i.p., 14 days, Behren Korber's method; for selectivity ratio: read-out: (C.I.)* = (LD50/ED50)/[(LD50/ED50) of MMC1]. Here is the method:
as §2
Each animal of the test group consisting of 5 ddy mice was once administered (i.p.) with a test compound. […] The LD50 was determined by Behren Korber's method.

A further data set in a line: in vivo. It counts as in vivo, mice (ddy strain). The settings on record: mouse, in vivo, ip; read-out: (WBC4000/ED50)* = (WBC4000/ED50)/[(WBC4000/ED50) of MMC1]. Here is the method: as §2
(4) Effect upon the number of the peripheral leucocytes:
Sarcoma 180 solid tumour cells (5×10^6) were subcutaneously implanted into the right armpit of each mouse (body weight 20±2 g) of a group consisting of 5 male mice (ddy strain). 24 hours after implantation,a test compound was abdominally administered to each mouse. 4 days later, blood (each 0.02 ml) was collected from the suborbital plexus vein of each tumour-carrying mouse. The collected sample of blood was dispersed in 9.98 ml of Cell-kit Seven solution. One drop of saponin solution was added to the sample to dissolve erythrocytes and then a microcell counter was used to measure the number of leucocytes. On graph paper, the number of leucocytes was indicated on the y-axis by an arithmetic scale and the does of the test compound was indicated on the x-axis by a logarithmic scale.
The relationship between the number of peripheral leucocytes and the dosage of the test compound was plotted to obtain WBC4000 viz. the dosage corresponding to […] per mm^3 (about half of the number of leucocytes of normal mice).

Another data set is described as follows: Solubility in water. It counts as physicochemical. The settings on record: water.
A further data set has as its system P388 Leukemia. The data set can be described thus: Effect upon Leukemia P 388. In kind it is in vivo, mouse (CDF1). The following applies: single i.p., 33 days. Here is the method:
(5) Effect upon Leukemia P 388:
Ascites cells were collected from P388 Leukemia-carrying mouse (DBA/2) 7 days after the implantation. The number of the cells of P388 Leukemia in the sample was counted. A physiological solution of sodium chloride was sterilized and used to prepare a cell suspension containing 5×10^6 tumour cells per ml. On each occasion, 0.2 ml of the suspension containing 1×10^6 cells was implanted into the abdominal cavity of each mouse (CDF1; body weight 20~25 g). 24 hours after implantation, the test compound was once given to each mouse of a test group consisting of 6 mice by abdominal injection.
The activity of the test samples was determined by the ratio of the average survival days of the treated animals to the average survival days of untreated animals viz. ILS % (Increased Life Span).

Setting [5] is: ATCC10541, pH 7, read-out: minimum inhibitory concentration, SF.
Where [6] appears, read: Staphylococcus aureus, pH 7, read-out: minimum inhibitory concentration, SA.
Setting [7] is: Escherichia coli, ATCC26, pH 7, read-out: minimum inhibitory concentration, EC.
Where [8] appears, read: Proteus vulgaris, ATCC6897, pH 7, read-out: minimum inhibitory concentration, PV.

Values after ≈ are worked out from the molar mass of the structure shown. Where two headings read alike, the source gives them in different places.

Regarding `CO[C@@]12[C@H](COC(N)=O)C3=C(C(=O)C(C)=C(NCCSSCCCNC(=O)CC[C@H](N)C(=O)O)C3=O)N1C[C@@H]1N[C@@H]12` [Compound 4, 7-N-[2-[[3-(N^5 -L-glutamino)propyl]dithio]ethyl]mitomycin C], the MIC turned out to be 3.1 µg/mL (≈ 5.06 µM) in data set [1] (setting [5]); 1.6 µg/mL (≈ 2.61 µM) in [2] (setting [6]); 250 µg/mL (≈ 408 µM) in the data set with Escherichia coli ATCC 26 (setting [7]); 3.1 µg/mL (≈ 5.06 µM) in data set [3] (setting [8]); 0.8 µg/mL (≈ 1.31 µM) in [4]. In the data set on Sarcoma 180 solid tumour, the ED50 (in general, the dose at which the effect has come halfway, by size or by number of responders) was 5.1 mg/kg. Also, the 50% lethal dose (LD50) (as a rule, the dose at which mortality reaches 50%) at 336 h in “Acute toxicity” is 22.5 mg/kg. Further, the selectivity ratio came to 1.52 in the data set “Acute toxicity” and 1.27 in “in vivo”. Besides, the solubility (usually the dissolved amount per volume that the medium holds) in the data set “Solubility in water” is over 20 mg/mL.

Regarding `CO[C@@]12[C@H](COC(N)=O)C3=C(C(=O)C(C)=C(NCCSSCCNC(=O)[C@@H](N)CCC(=O)O)C3=O)N1C[C@@H]1N[C@@H]12` [Compound 9, 7-N-[2-[[2-(N^2 -L-glutamino)ethyl]dithio]ethyl]mitomycin C], in the data set on Sarcoma 180 solid tumour, the median effective dose (ED50) was found to be 7.7 mg/kg. The solubility in the data set “Solubility in water” was over 20 mg/mL.

Regarding `CO[C@@]12[C@H](COC(N)=O)C3=C(C(=O)C(C)=C(NCCSSCCSC(C)=O)C3=O)N1C[C@@H]1N[C@@H]12` [Compound 33, 7-N-[2-[[2-(acetylthio)ethyl]dithio]ethyl]mitomycin C], the MIC in [1] (setting [5]) is 0.039 µg/mL (≈ 0.0738 µM); in data set [2] (setting [6]), 0.078 µg/mL (≈ 0.148 µM); with Escherichia coli ATCC 26 (setting [7]) it was over 40 µg/mL; in [3] (setting [8]) it was 0.63 µg/mL (≈ 1.19 µM); in [4], 0.63 µg/mL (≈ 1.19 µM). For the same compound, the ED50 with Sarcoma 180 solid tumour came to 5.6 mg/kg. In the data set “Acute toxicity”, this compound had an LD50 at 336 h of 4.7 mg/kg. The selectivity ratio in the data set “Acute toxicity” is 0.36; in “in vivo” it was 1.27.

Regarding `CO[C@@]12[C@H](COC(N)=O)C3=C(C(=O)C(C)=C(NCCSSCCCCNC(=O)CC[C@H](N)C(=O)O)C3=O)N1C[C@@H]1N[C@@H]12` [Compound 5, 7-N-[2-[[4-(N^5 -L-glutamino)butyl]dithio]ethyl]mitomycin C], the MIC in [1] (setting [5]) amounted to 1.6 µg/mL (≈ 2.55 µM); in [2] (setting [6]), 1.6 µg/mL (≈ 2.55 µM); in data set [3] (setting [8]) it was 1.6 µg/mL (≈ 2.55 µM); in data set [4] it was 0.8 µg/mL (≈ 1.28 µM). Moreover, the ED50 in the data set with Sarcoma 180 solid tumour came out at 8.4 mg/kg. The same compound gave an LD50 at 336 h in the data set “Acute toxicity” of 30 mg/kg. Further, the selectivity ratio turned out to be 1.66 in “Acute toxicity” and 3.21 in “in vivo”. Moreover, in the data set “Solubility in water”, the solubility is over 20 mg/mL.

Take `CC(=O)NCCSSCCNC1=C(C)C(=O)C2=C(C1=O)[C@H](COC(N)=O)[C@@]1(O)[C@@H]3[C@H](CN21)N3C` (stereo partly shown) [Compound 17, 7-N-[2-[(2-acetamidoethyl)dithio]ethyl]mitomycin D]: the figures for the MIC in data set [1] (setting [5]), in data set [2] (setting [6]) and in data set [3] (setting [8]) were 25 µg/mL (≈ 48.9 µM), over 50 µg/mL and over 50 µg/mL, respectively. Moreover, the median effective dose (ED50) in the data set on Sarcoma 180 solid tumour amounted to 7.3 mg/kg. Also, the LD50 at 336 h in “Acute toxicity” is 60 mg/kg. Further, the selectivity ratio in “Acute toxicity” turned out to be 2.73; in the data set “in vivo”, 2.6. In the data set with P388 Leukemia (dose 25 mg/kg), the “ILS* (ratio of ILS % to that of mitomycin C)” value is over 1.78.

For `CC1=C(NCCSSCCNC(=O)CC[C@H](N)C(=O)O)C(=O)C2=C(C1=O)N1C[C@H]3[C@H](N3C)[C@]1(O)[C@H]2COC(N)=O` (stereo partly drawn) [Compound 2, 7-N-[2-[[2-(N^5 -L-glutamino)ethyl]dithio]ethyl]mitomycin D], the MIC in [1] (setting [5]) is 100 µg/mL (≈ 167 µM); in data set [2] (setting [6]), 50 µg/mL (≈ 83.5 µM); in data set [3] (setting [8]), 25 µg/mL (≈ 41.8 µM); in data set [4], over 100 µg/mL. For the same compound, the ED50 with Sarcoma 180 solid tumour came to 18 mg/kg. The compound also showed a median lethal dose (LD50) at 336 h in “Acute toxicity” of 90 mg/kg. Besides, the selectivity ratio in the data set “Acute toxicity” came out at 1.55; in the data set “in vivo”, 2.14. Besides, the “ILS* (ratio of ILS % to that of mitomycin C)” value in the data set with P388 Leukemia (dose 50 mg/kg) was over 1.34. For the same compound, in “Solubility in water”, the solubility is over 5 mg/mL.

For the compound `CO[C@@]12[C@H](COC(N)=O)C3=C(C(=O)C(C)=C(N)C3=O)N1C[C@@H]1N[C@@H]12` [MM-C, mitomycin C, reference compound], the MIC in data set [1] (ATCC10541, agar dilution method, pH 7.0, Streptococcus faecalis, read-out: minimum inhibitory concentration, SF) amounted to 0.08 µg/mL (≈ 0.239 µM); in data set [2] (agar dilution method, pH 7.0, Staphylococcus aureus, read-out: minimum inhibitory concentration, SA), 0.04 µg/mL (≈ 0.12 µM); in the data set on Escherichia coli ATCC 26 (ATCC26, agar dilution method, pH 7.0, Escherichia coli, read-out: minimum inhibitory concentration, EC), 10 µg/mL (≈ 29.9 µM); in [3] (ATCC6897, agar dilution method, pH 7.0, Proteus vulgaris, read-out: minimum inhibitory concentration, PV), 0.02 µg/mL (≈ 0.0598 µM).
